Our source for the terminal half-life, α-phase half-life and solubility values is US20160000721A1, “GASTRO-RETENTIVE FORMULATIONS” (priority 2012, published 2016).

Values after ≈ are worked out from the molar mass of the structure shown.

The conditions of data set [1]: in vivo; cited from earlier work.
A short description of data set [2]: Aqueous solubility of raltegravir at given pH. In kind it is physicochemical. The source says: In one embodiment of the invention, the drug is raltegravir or pharmaceutically acceptable salt thereof. Raltegravir (N-(4-fluorobenzyl)-5-hydroxy-1-methyl-2-(1-methyl-1-{[(5-methyl-1,3,4-oxadiazol-2-yl)carbonyl]amino}ethyl)-6-oxo-1,6-dihydropyrimidine-4-carboxamide) belongs to a novel class of anti-retroviral drugs indicated for the treatment of human immunodeficiency virus (HIV-1) known as integrase strand inhibitors. See, e.g., U.S. Pat. No. 7,169,780. More particularly preferred is the anhydrous crystalline potassium salt of raltegravir, which is characterized by an X-ray powder diffraction pattern obtained using copper Kα radiation which comprises 2Θ values in degrees of 5.9, 20.0 and 20.6. See U.S. Pat. No. 7,754,731, herein incorporated by reference in its entirety. This form of raltegravir is the active pharmaceutical ingredient (API) in […]® tablets.

As to `Cc1nnc(C(=O)NC(C)(C)c2nc(C(=O)NCc3ccc(F)cc3)c(O)c(=O)n2C)o1` [Raltegravir, N-(4-fluorobenzyl)-5-hydroxy-1-methyl-2-(1-methyl-1-{[(5-methyl-1,3,4-oxadiazol-2-yl)carbonyl]amino}ethyl)-6-oxo-1,6-dihydropyrimidine-4-carboxamide], the terminal half-life entry in data set [1] is on record as “approximately 9 hours”. Further, the α-phase half-life result in data set [1] was “approximately 1 hour”. Besides, the solubility in data set [2] (aqueous buffer, pH range of 1-6) amounted to 20 µg/mL (≈ 45 µM); in data set [2] (pH 6.8, aqueous buffer) it was 480 µg/mL (≈ 1080 µM).

What is called solubility is how much of the substance goes into solution per volume.
